Experimental data published in the NIST ThermoML archive (doi:10.1021/je100734t).

Test: xn = mol fraction of the nth substance listed
Details: 101 kPa, Liquid; for speed of sound: Pulse-echo method

Cc1cccc(C)c1 [1,3-dimethylbenzene] + CCCCCCCCCCO
Details	mass density, 293.15 K [kg/m3]	mass density, 303.15 K [kg/m3]	mass density, 313.15 K [kg/m3]	speed of sound, 293.15 K [m/s]	speed of sound, 303.15 K [m/s]	speed of sound, 313.15 K [m/s]
x1 = 0.0627	831.48	824.51	817.53	1392	1358	1324
x1 = 0.1424	833.39	826.27	819.18	1388	1352	1318
x1 = 0.2052	834.93	827.72	820.53	1383	1347	1312
x1 = 0.2618	836.35	829.06	821.78	1379	1343	1308
x1 = 0.3217	837.9	830.53	823.14	1375	1338	1302
x1 = 0.3934	839.84	832.37	824.85	1369	1332	1296
x1 = 0.4989	842.94	835.28	827.6	1361	1324	1287
x1 = 0.5581	844.81	837.05	829.26	1357	1319	1282
x1 = 0.6343	847.44	839.52	831.6	1352	1313	1276
x1 = 0.7131	850.41	842.31	834.24	1348	1308	1270
x1 = 0.7991	853.99	845.71	837.47	1344	1304	1265
x1 = 0.8465	856.11	847.74	839.4	1342	1302	1262
x1 = 0.8964	858.52	850.09	841.61	1341	1300	1260
x1 = 0.9421	860.9	852.38	843.82	1341	1300	1259
x1 = 1	864.18	855.56	846.9	1340	1300	1259

CCCCCCCCCCO [decan-1-ol] + CCc1ccccc1
Details	mass density, 293.15 K [kg/m3]	mass density, 303.15 K [kg/m3]	mass density, 313.15 K [kg/m3]	speed of sound, 293.15 K [m/s]	speed of sound, 303.15 K [m/s]	speed of sound, 313.15 K [m/s]
x2 = 0	829.98	823.1	816.27	1396	1362	1329
x2 = 0.0666	831.5	824.47	817.46	1391	1356	1322
x2 = 0.1392	833.18	826	818.82	1385	1350	1316
x2 = 0.1932	834.47	827.18	819.88	1381	1345	1310
x2 = 0.2642	836.24	828.8	821.32	1375	1339	1304
x2 = 0.3355	838.11	830.52	822.85	1369	1333	1297
x2 = 0.3936	839.72	832.03	824.21	1364	1327	1291
x2 = 0.4483	841.33	833.52	825.58	1360	1322	1286
x2 = 0.5238	843.73	835.78	827.65	1354	1316	1279
x2 = 0.598	846.33	838.23	829.91	1349	1310	1273
x2 = 0.6621	848.79	840.59	832.13	1344	1305	1268
x2 = 0.7309	851.72	843.4	834.8	1341	1301	1263
x2 = 0.7953	854.7	846.31	837.56	1338	1298	1259
x2 = 0.8668	858.41	849.96	841.06	1336	1295	1256
x2 = 0.9396	862.65	854.3	845.13	1336	1295	1255
